From patent publication US20230227427A1, “IL-17A MODULATORS” (SANOFI, priority 2010, published 2023) come the findings set out here.

The structures appear in SMILES notation.

The assay concerns the target T1, human recombinant IL-17A (Homo sapiens, UniProt Q16552).
T1 construct: purchased R&D Systems 7955-IL/CF
T1 sequence (Q16552 24-155): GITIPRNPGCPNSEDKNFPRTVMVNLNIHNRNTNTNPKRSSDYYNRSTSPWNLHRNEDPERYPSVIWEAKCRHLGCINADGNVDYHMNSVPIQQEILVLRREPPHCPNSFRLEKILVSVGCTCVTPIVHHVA
Nature of the assay: IL-17A AlphaLISA assay (block binding of IL-17A to its receptor IL-17RA). Conditions: compounds pre-incubated with the IL-17A for 30 min (indicated by * in Table A); read-out: AlphaLISA pIC50 (converted). The gist of the method:
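Compounds pre-incubated 24 h at RT (30 min where flagged) with human IL-17A (7.5 nM stock) before IL-17RA/Fc (5 nM stock), 90 min. Read by AlphaLISA via anti-Fc acceptor and biotin anti-IL-17A/streptavidin donor beads, 680/615 nm. 4-parameter fit; DMSO and 6 μM reference inhibitor as controls; pIC50.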

`Cc1noc(C)c1-c1ncc(NC(=O)[C@@H](NC(=O)c2ccnn2C)[C@H]2CC[C@H](C)CC2)cn1` [Example 135, N—((S)-2-((2-(3,5-dimethylisoxazol-4-yl)pyrimidin-5-yl)amino)-1-((1r,4S)-4-methylcyclohexyl)-2-oxoethyl)-1-methyl-1H-pyrazole-5-carboxamide]: the IC50 is 398 nM.

As for `Cc1cnn(C)c1-c1ccc(NC(=O)[C@@H](NC(=O)c2conc2C)C2CCCCCC2)nc1` [Example 136, (S)—N-(1-Cycloheptyl-2-((5-(1,4-dimethyl-1H-pyrazol-5-yl)pyridin-2-yl)amino)-2-oxoethyl)-3-methylisoxazole-4-carboxamide], the IC50 is 63.1 nM.

Take `COCc1nocc1C(=O)N[C@H](C(=O)Nc1ccc(-c2c(C)cnn2C)cn1)C1CCCCCC1` [Example 137, (S)—N-(1-Cycloheptyl-2-((5-(1,4-dimethyl-1H-pyrazol-5-yl)pyridin-2-yl)amino)-2-oxoethyl)-3-(methoxymethyl)isoxazole-4-carboxamide]: the IC50 was 200 nM.

For the compound `Cc1noc(C)c1-c1ccc(NC(=O)[C@@H](NC(=O)c2ccnn2C)[C@H]2CC[C@H](C)CC2)cn1` [Example 138, N—((S)-2-((6-(3,5-dimethylisoxazol-4-yl)pyridin-3-yl)amino)-1-((1r,4S)-4-methylcyclohexyl)-2-oxoethyl)-1-methyl-1H-pyrazole-5-carboxamide], the IC50 is 251 nM.

Turning to `CCn1nccc1C(=O)N[C@H](C(=O)Nc1ccc(-c2c(C)c[n+]([O-])cc2C)cn1)[C@H]1CC[C@H](C)CC1` [Example 139, 6-((S)-2-(1-Ethyl-1H-pyrazole-5-carboxamido)-2-((1r,4S)-4-methylcyclohexyl)acetamido)-3′,5′-dimethyl-[3,4′-bipyridine]1′-oxide], the IC50 was 126 nM.

Regarding `CCc1nocc1C(=O)N[C@H](C(=O)Nc1ccc(-c2ncncc2C)cn1)[C@H]1CC[C@H](C)CC1` [Example 140, 3-Ethyl-N—((S)-1-((1r,4S)-4-methylcyclohexyl)-2-((5-(5-methylpyrimidin-4-yl)pyridin-2-yl)amino)-2-oxoethyl)isoxazole-4-carboxamide], the IC50 is 631 nM.

`CCn1nncc1C(=O)N[C@H](C(=O)Nc1ccc(-c2c(C)cnn2C)cn1)C1CCCCCC1` [Example 141, (S)—N-(1-Cycloheptyl-2-((5-(1,4-dimethyl-1H-pyrazol-5-yl)pyridin-2-yl)amino)-2-oxoethyl)-1-ethyl-1H-1,2,3-triazole-5-carboxamide]: the IC50 is 158 nM.

Turning to `COCc1noc(C)c1-c1ccc(NC(=O)[C@@H](NC(=O)c2ccnn2C)[C@H]2CC[C@H](C)CC2)nc1` [Example 142, N—((S)-2-((5-(3-(methoxymethyl)-5-methylisoxazol-4-yl)pyridin-2-yl)amino)-1-((1r,4S)-4-methylcyclohexyl)-2-oxoethyl)-1-methyl-1H-pyrazole-5-carboxamide], the IC50 was 398 nM.

On to `CCc1nocc1C(=O)N[C@H](C(=O)Nc1ccc(-c2c(C)cnn2C)cn1)C1CCC(F)(F)CC1` [Example 144, (S)—N-(1-(4,4-difluorocyclohexyl)-2-((5-(1,4-dimethyl-1H-pyrazol-5-yl)pyridin-2-yl)amino)-2-oxoethyl)-3-ethylisoxazole-4-carboxamide], for which the IC50 was 794 nM.

Consider `Cc1cnn(C)c1-c1ccc(NC(=O)[C@@H](NC(=O)c2ccnn2C)[C@H]2CC[C@H](C)CC2)cn1` [Example 145, N—((S)-2-((6-(1,4-dimethyl-1H-pyrazol-5-yl)pyridin-3-yl)amino)-1-((1r,4S)-4-methylcyclohexyl)-2-oxoethyl)-1-methyl-1H-pyrazole-5-carboxamide], for which the IC50 was 398 nM.

`Cc1cc(NC(=O)[C@@H](NC(=O)c2ccnn2C)[C@H]2CC[C@H](C)CC2)ncc1-c1ccnn1C` [Example 146, 1-methyl-N—((S)-2-((4-methyl-5-(1-methyl-1H-pyrazol-5-yl)pyridin-2-yl)amino)-1-((1r,4S)-4-methylcyclohexyl)-2-oxoethyl)-1H-pyrazole-5-carboxamide]: the IC50 is 501 nM.

As to `CCn1nccc1C(=O)N[C@H](C(=O)Nc1cnc(-c2c(C)cnn2C)nc1)[C@H]1CC[C@H](C)CC1` [Example 147, N—((S)-2-((2-(1,4-dimethyl-1H-pyrazol-5-yl)pyrimidin-5-yl)amino)-1-((1r,4S)-4-methylcyclohexyl)-2-oxoethyl)-1-ethyl-1H-pyrazole-5-carboxamide], the IC50 is 398 nM.

Consider `Cc1nnn(C)c1-c1ccc(NC(=O)[C@@H](NC(=O)c2ccnn2C)C2CCCCCC2)nc1` [Example 148, (S)—N-(1-cycloheptyl-2-((5-(1,4-dimethyl-1H-1,2,3-triazol-5-yl)pyridin-2-yl)amino)-2-oxoethyl)-1-methyl-1H-pyrazole-5-carboxamide], for which the IC50 is 200 nM.

Regarding `CCn1nccc1C(=O)N[C@H](C(=O)Nc1ccc(-c2c(C)nnn2C)cn1)C1CCCCCC1` [Example 149, (S)—N-(1-cycloheptyl-2-((5-(1,4-dimethyl-1H-1,2,3-triazol-5-yl)pyridin-2-yl)amino)-2-oxoethyl)-1-ethyl-1H-pyrazole-5-carboxamide], the IC50 is 79.4 nM.

As to `COCc1onc(C)c1-c1ccc(NC(=O)[C@@H](NC(=O)c2ccnn2C)C2CCCCCC2)nc1` [Example 150, (S)—N-(1-cycloheptyl-2-((5-(5-(methoxymethyl)-3-methylisoxazol-4-yl)pyridin-2-yl)amino)-2-oxoethyl)-1-methyl-1H-pyrazole-5-carboxamide], the IC50 is 398 nM.

Turning to `Cc1nccc(-c2ccc(NC(=O)[C@@H](NC(=O)c3ccnn3C)[C@H]3CC[C@H](C)CC3)nc2)c1C` [Example 152, N—((S)-2-((2′,3′-dimethyl-[3,4′-bipyridin]-6-yl)amino)-1-((1r,4S)-4-methylcyclohexyl)-2-oxoethyl)-1-methyl-1H-pyrazole-5-carboxamide], the IC50 was 794 nM.

Take `Cc1cc(-c2ccc(NC(=O)[C@@H](NC(=O)c3ccnn3C)[C@H]3CC[C@H](C)CC3)nc2)c(C)cn1` [Example 153, N—((S)-2-((2′,5′-dimethyl-[3,4′-bipyridin]-6-yl)amino)-1-((1r,4S)-4-methylcyclohexyl)-2-oxoethyl)-1-methyl-1H-pyrazole-5-carboxamide]: the IC50 was 398 nM.

Take `CCn1nccc1C(=O)N[C@H](C(=O)Nc1ccc(-c2c(C)cnn2C)nc1)[C@H]1CC[C@H](C)CC1` [Example 154, N—((S)-2-((6-(1,4-dimethyl-1H-pyrazol-5-yl)pyridin-3-yl)amino)-1-((1r,4S)-4-methylcyclohexyl)-2-oxoethyl)-1-ethyl-1H-pyrazole-5-carboxamide]: the IC50 was 251 nM.

On to `CCc1nocc1C(=O)N[C@H](C(=O)Nc1ccc(-c2c(C)cnn2C)nc1)[C@H]1CC[C@H](C)CC1` [Example 155, N—((S)-2-((6-(1,4-dimethyl-1H-pyrazol-5-yl)pyridin-3-yl)amino)-1-((1r,4S)-4-methylcyclohexyl)-2-oxoethyl)-3-ethylisoxazole-4-carboxamide], for which the IC50 was 100 nM.

On to `Cc1cnn(C)c1-c1ncc(NC(=O)[C@@H](NC(=O)c2ccnn2C)[C@H]2CC[C@H](C)CC2)cn1` [Example 156, N—((S)-2-((2-(1,4-dimethyl-1H-pyrazol-5-yl)pyrimidin-5-yl)amino)-1-((1r,4S)-4-methylcyclohexyl)-2-oxoethyl)-1-methyl-1H-pyrazole-5-carboxamide], for which the IC50 is 398 nM.
